Test results: ChEMBL document CHEMBL1143024, “Clavaminols A-F, novel cytotoxic 2-amino-3-alkanols from the ascidian Clavelina phlegraea” (Bioorg Med Chem, 2007)
In brackets after ≈: the same amount, converted by molar mass. Activity calls are given as the source filed them. The rule behind the calls is not given here.

Columns and labels:
AGS = assay: Cytotoxicity against human AGS cells after 24 hrs by calcein uptake assay; assay type: functional, cell-based
Jurkat [1] = assay: Induction of apoptosis in human Jurkat cells assessed as increase in hypodiploid cells at 10 ug/mL after 18 hrs by TUNEL method; assay type: functional
A549 = assay: Cytotoxicity against human A549 cells after 24 hrs by calcein uptake assay; assay type: functional, cell-based
T47D = assay: Cytotoxicity against human T47D cells after 24 hrs by calcein uptake assay; assay type: functional, cell-based
Jurkat [2] = assay: Cell cycle arrest in human Jurkat cells assessed as accumulation at G1/S phase at 10 ug/mL after 18 hrs […]; assay type: functional, cell-based

Structure (SMILES)	IC50 (AGS)	Activity (Jurkat [1])	Activity (A549)	Activity (T47D)	Activity (Jurkat [2])	Activity (AGS)
CCCCCCCCC[C@H](O)[C@@H](C)N [CLAVAMINOL A]	5 µg/mL (≈ 24.8 µM)	44.6%	Active	Active	Active	–
CCCCCCCCC[C@H](O)[C@@H](C)NC(C)=O	–	–	–	–	–	inactive
CCCCCCCCC[C@H](OC(C)=O)[C@@H](C)N	–	–	–	–	–	inactive
